Consider 15 compounds from patent US11230569B2, “Antiplasmodial compounds” (UNIVERSITY OF CENTRAL FLORIDA RESEARCH FOUNDATION, INC., priority 2018, dated 2022).

Where two headings read alike, the source gives them in different places.

One assay deals with HepG2 human hepatocytes. The assay can be described thus: MTS cytotoxicity assay in HepG2 cells (counter screen, selectivity). The class given is cell-based. To be noted: for Selectivity Index: Hep G2 cell EC50 : P. falciparum EC50, pure compound library hits. The source says: (§1) In the pursuit to discover next generation of antimalarials from novel areas of chemical space, a large library of diverse fungi was screened to discover secondary metabolites active against malaria parasite. […] The Cichewicz fungal collection contains tens of thousands of fungal isolates that were secured from diverse habitats and ecological niches across the United States. It is believed that fungal secondary metabolites, which are underexplored for antimalarial drug discovery, provide a unique opportunity to explore medicinally relevant, but untapped chemical space for the discovery of essential malaria therapeutics. Libraries of 750 pure compounds, and of 460 extracts obtained from diverse fungal sources have been screened for their ability to inhibit intraerythrocytic growth of chloroquine-resistant P. falciparum Dd2 using a SYBR Green I-based fluorescence assay. As a counter screen, the cytotoxicity of the top ten extracts in HepG2 cells was evaluated using the MTS ((3-(4,5 dimethylthiazol-2-yl)-5-(3-carboxymethoxyphenyl)-2-(4-sulfophenyl)-2H-tetrazolium, inner salt) cell proliferation assay. This screening has identified potent and selective novel antiplasmodial compounds. These unique pharmacophores from wide areas of chemical space would provide chemical starting points to develop lead compounds for drugs against malaria.
Cross selectivity for human cells was determined using HepG2 human hepatocytes and an MTS (3-(4,5-Dimethylthiazol-2-yl)-5-(3-carboxymethoxyphenyl)-2-(4-sulfophenyl)-2H-tetrazolium) based cytotoxicity assay. After seeding 2,250 cells per well into 384-well microtiter plates, cells were incubated for 24 h. Next, serial dilutions of compounds were added to the seeded plates and incubated for additional 48 h at 37° C., and 5% CO2. Zero percent growth control wells were incubated with 5% Triton X-100 for 5 min prior to MTS addition and incubated for 4 h at identical growth conditions. Absorbance was then read at 490 nm in a Synergy Neo2 multi-mode reader (BioTek, Winsooki, Vt.) and values were normalized based on detergent lysed and no treatment controls.

In another assay the test system is Histone H4. Description: Western blot of parasite extracts with anti-acetyl histone 4 antibody. Format: cell-based, Plasmodium. To be noted: mixed stage culture, EC90 concentrations, 4 hrs. On the procedure:
Mixed stage culture was incubated with EC90 concentrations of 130134 Analog 2 and PF1070A for 4 hrs and cell free parasite extracts were subjected to western blot analysis using anti-acetyl histone 4 antibody.
Of the hits found, several have known targets in other model systems, allowing us to expedite target analysis. One such compound is Chlamydocin, a known Class I HDAC inhibitor. Western blot analysis of Plasmodium extracts confirms that analogs of this compound causes hyperacetylation of histone 4 and is suspected to target Plasmodium HDAC1.
For orientation: A western blot detects proteins with antibodies after separation by electrophoresis.

In another assay the test system is P. falciparum Dd2. Description: SYBR Green I-based fluorescence assay, intraerythrocytic growth inhibition. The class given is cell-based, Plasmodium falciparum.
Source text: as §1
Ten millimolar compound stocks in DMSO were diluted by ½, ⅕, and/or 1/10 fold dilutions in ultrapure water or RPMI 1640. Varying concentrations of compound were added to culture at a 1% parasitemia and 2% hematocrit in 96-well black plates. Assay conditions maintained maximum DMSO concentrations less than 0.125% per dilution. Positive (baseline 0% growth) controls consisted of Chloroquine at 1 μM final concentration. Following 72 h incubation at 37° C. in 5% CO2, dilution plates were frozen at −80° C. for a minimum of 30 minutes. Dilution plates were allowed to thaw followed by lysis treatment and SYBR Green I incorporation. DNA quantification was determined using a fluorescence reading on a Synergy H4 multimode plate reader set at 485 nm excitation and 530 nm emission as previously reported (Roberts, Iyamu et al. 2016). EC50 was calculated from a dose response curve that was generated from a concentration range of 0-10 μM using GraphPad Prism v5.0.
Different dilutions of the compound/fraction in 1 μl of the culture medium were added to 99 μl of P. falciparum culture at a 1% parasitemia and 2% hematocrit in 96-well plates. Maximum DMSO concentration in the culture never exceeded 0.125%. Chloroquine at 1 μM was used as a positive control to determine the baseline value. Following 72 hours incubation at 37° C., the plates were frozen at −80° C. After thawing, 100 μL of lysis buffer (with SYBR Green I dye 1:10,000) was added to each well and plates were incubated at room temperature for 30 minutes prior to reading.
Culture was maintained following a modified Trager and Jensen protocol.^xxv Multi-drug resistant P. falciparum line Dd2 was grown in RPMI 1640 supplemented with 25 mM HEPES pH 7.4, 26 mM NaHCO3, 2% dextrose, 15 mg/L hypoxanthine, 25 mg/L gentamycin and 0.5% Albumax II in human A+ erythrocytes. Culture was maintained at 4% hematocrit at 37° C. with 5% CO2.
Plates were subsequently frozen at −80° C. to facilitate lysis. After thawing, plates were incubated with 1×SYBR Green I in lysis buffer (20 mM Tris-HCl, 0.08% saponin, 5 mM EDTA, 0.8% Triton X-100) for 45-60 min at room temperature. Fluorescence was measured at an excitation wavelength 485 nm, emission 530 nm in a Synergy Neo2 multi-mode reader (BioTek, Winsooki, Vt.). RFUs were normalized based on chloroquine treated and no treatment controls. For all compounds listed, serial dilutions were prepared in RPMI with final assay conditions of 0.2% DMSO or below.

The next assay has as its system trophozoites. Description: IFA and western blot for acetylation after treatment at 6 HPI. Format: cell-based. To be noted: culture followed until 54 HPI. The text has this: Culture followed until 54 HPI. Scale bar represents 1 micron.
(§2) Culture followed until 54 HPI. Scale bar represents 1 micron. FIG. 10(B) is a western blot showing acetylation following treatment at 6 HPI with 137LJ57K, initial impure extract of 137LJ57K1.

The target of a further assay is PfHDAC1 (Plasmodium falciparum, UniProt Q7K6A1). The assay can be described thus: PfHDAC1 assay. The class given is biochemical.
Chain of PfHDAC1 (Q7K6A1 entry or part of it): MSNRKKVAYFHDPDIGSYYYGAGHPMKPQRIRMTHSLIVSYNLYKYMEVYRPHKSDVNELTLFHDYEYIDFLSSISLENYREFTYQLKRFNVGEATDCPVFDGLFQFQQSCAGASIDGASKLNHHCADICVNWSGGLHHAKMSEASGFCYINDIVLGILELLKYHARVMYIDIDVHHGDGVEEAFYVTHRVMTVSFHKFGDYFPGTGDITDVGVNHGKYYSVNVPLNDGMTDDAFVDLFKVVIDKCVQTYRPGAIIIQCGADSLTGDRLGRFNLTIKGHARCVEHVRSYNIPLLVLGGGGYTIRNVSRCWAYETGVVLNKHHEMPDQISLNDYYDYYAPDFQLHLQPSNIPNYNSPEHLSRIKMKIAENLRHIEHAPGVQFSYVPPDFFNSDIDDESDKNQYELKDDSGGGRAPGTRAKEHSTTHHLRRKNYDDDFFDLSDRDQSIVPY
Source text: as §2
FIGS. 17-20 provide multiple versions of cyclic tetrapeptides along with their EC50s for various noted assays including Pf, Hep G2 and PfHDAC1 assays

A further assay concerns P. falciparum. To be noted: literature; cited from earlier work.
Setting [1] is: Plasmodium falciparum, DD2, 72 h.
Where [2] appears, read: Plasmodium falciparum, Top hits from pure compound library, chloroquine-resistant P. falciparum Dd2, 72 h, read-out: EC50.

Turning to `CC1NC(=O)C(CCCCCC(=O)C2CO2)NC(=O)C2CCCN2C(=O)C(Cc2ccccc2)NC1=O` (centres unmarked) [130134 Analog 1, 1-Alanine-chlamydocin], in the assay with HepG2 human hepatocytes, the “Selectivity Index” value was 3. Further, in the assay on Histone H4, the “hyperacetylation of Histone H4” value was “causes hyperacetylation of Histone H4”. Besides, in the assay on P. falciparum Dd2 (setting [1]), the EC50 came to 9 nM.

On to `CCC(C)C1NC(=O)C(Cc2ccccc2)NC(=O)C(CCCCCC(=O)C2CO2)NC(=O)C2CCCCN2C1=O` (centres unmarked) [130134 Analog 2, PF1070A], for which, in the assay on HepG2 human hepatocytes, the “selectivity (in words)” value is listed as “selective” and the “Selectivity Index” value is given as greater than 23. The “hyperacetylation of Histone H4” value in the assay on Histone H4 was “causes hyperacetylation of Histone H4”. Moreover, the EC50 with P. falciparum Dd2 (setting [1]) worked out at 37 nM. In addition, in the assay on P. falciparum Dd2 (Plasmodium falciparum, DD2, read-out: EC50 against multidrug resistant malaria), the EC50 stood at 37 nM.

In the case of `CCC(C)C1NC(=O)C(Cc2ccccc2)NC(=O)C(CCCCCC(=O)C2CO2)NC(=O)C2CCCCN2C1=O` (centres unmarked) [Compound 137LJ57K1], the hyperacetylation entry in the assay on trophozoites is on record as “hyperacetylation during trophozoite stage”. The EC50 is 13100 nM in the assay on HepG2 human hepatocytes (Homo sapiens, HepG2); less than 0.2 nM at PfHDAC1; 88 nM with P. falciparum Dd2 (Plasmodium falciparum, DD2, read-out: Dd2 EC50 (nM)).

For the compound `C/C1=C\[C@H](C)C[C@H](C)CC(=O)C[C@H](c2ccc(O)cc2)NC(=O)[C@@H](Cc2c(Br)[nH]c3ccccc23)N(C)C(=O)[C@H](C)NC(=O)[C@@H](C)C1` [Compound 120030], the “Selectivity Index” value with HepG2 human hepatocytes is reported as greater than 92.25. In addition, in the assay with P. falciparum Dd2 (setting [1]), the EC50 was 271 nM.

In the case of `C=C1[C@@H](O)[C@@H]2O[C@]3(CC[C@H](/C=C/[C@@H](C)[C@@H]4CC(C)=C[C@@]5(O[C@H](C[C@@](C)(O)C(=O)O)CC[C@H]5O)O4)O3)CC[C@H]2O[C@@H]1[C@@H](O)C[C@H](C)[C@H]1O[C@@]2(CCCCO2)CC[C@H]1C` [Compound 120033], the “Selectivity Index” value in the assay on HepG2 human hepatocytes was greater than 77. For the same compound, in the assay with P. falciparum Dd2 (setting [1]), the EC50 was determined as 55 nM.

For the compound `COC1=CC(c2ccc[nH]2)=N/C1=C/NCC(C)C` [Compound 120036], the “Selectivity Index” value with HepG2 human hepatocytes turned out to be 57.31. Further, in the assay with P. falciparum Dd2 (setting [2]), the EC50 is 180 nM.

Turning to `Oc1cc(O)c2c(c1)O[C@H](c1ccc(O)c(O)c1)[C@@H](O)C2` [Compound 120051], in the assay with HepG2 human hepatocytes, the “Selectivity Index” value is on record as 11.44. In addition, the EC50 in the assay on P. falciparum Dd2 (setting [2]) amounted to 47 nM.

`C[C@@]12OC(=O)[C@]1(C(O)[C@@H]1C=CCCC1)NC(=O)[C@@H]2CCCl` (some centres unmarked) [Compound 120066]: the “Selectivity Index” value in the assay with HepG2 human hepatocytes is reported as 290.28. In the assay with P. falciparum Dd2 (setting [1]), the EC50 is 47 nM.

Take `CC[C@H]1/C=C/C=C/C[C@@H](C)[C@H](O)[C@@](C)(O)C(=O)[C@@H](C)[C@H](O)[C@@H](C)C(=O)[C@@H](C)[C@H](O)[C@@H](C)/C=C/C(=O)O[C@@H]2[C@H](C)[C@H](CC1)O[C@]1(CC[C@H](C)[C@H](C[C@@H](C)O)O1)[C@H]2C` [Compound 120086]: in the assay with HepG2 human hepatocytes, the “Selectivity Index” value is given as 14.62. Also, the EC50 in the assay with P. falciparum Dd2 (setting [2]) came to 361 nM.

As to `O=C(c1cc(Cl)c(Cl)[nH]1)c1c(O)cccc1O` [Compound 130115], the “Selectivity Index” value in the assay on HepG2 human hepatocytes is listed as greater than 32. For the same compound, in the assay with P. falciparum Dd2 (setting [1]), the EC50 came out at 491 nM.

Consider `CC(C)[C@H]1CC[C@@](O)(CCl)[C@H]2C(=O)OCC(C(=O)O)=C[C@H]12` [Compound 130129], for which the “Selectivity Index” value in the assay on HepG2 human hepatocytes stood at 3. In addition, the EC50 in the assay on P. falciparum Dd2 (setting [1]) was 361 nM.

For the compound `CC(C)C1CCC(O)(CCl)C2C(=O)OCC(C(=O)O)=CC12` (centres unmarked) [Compound 130130], the “Selectivity Index” value with HepG2 human hepatocytes worked out at 3. Moreover, the EC50 in the assay with P. falciparum Dd2 (setting [1]) came out at 469 nM.

On to `CC(C)[C@H]1CC[C@@](O)(COC(=O)/C(=C/[C@@H]2[C@@H](C(C)C)CCC3(O)COC(=O)[C@@H]23)CO)[C@H]2C(=O)OCC(C(=O)O)=C[C@H]12` (some centres unmarked) [Compound 130131], for which the “Selectivity Index” value in the assay with HepG2 human hepatocytes is recorded as greater than 54. Moreover, the EC50 in the assay with P. falciparum Dd2 (setting [2]) came out at 367 nM.

Turning to `CC[C@H](C)[C@@H](C(=O)O[C@@H](CC(C)C)C(=O)N[C@@H](CC(C)C)C(=O)N[C@@H](C)/C=C/C(=O)N1C(=O)C=C(OC)[C@@H]1C)N(C)C` [gallinamide A], the IC50 with P. falciparum was 8400 nM.

Take Chlamydocin [Compound 130134]: the “Selectivity Index” value in the assay on HepG2 human hepatocytes stood at 7. Also, the concentration giving a half-maximal response (EC50) with P. falciparum Dd2 (Top hits from pure compound library, chloroquine-resistant P. falciparum Dd2, 72 h, read-out: EC50) is 24.7 nM.

By EC50 is commonly meant the concentration needed to bring the measured effect to its halfway point. The IC50 is the point on the concentration scale where inhibition reaches its midpoint.
